This is an account of results in patent publication US20240408004A1, “COMPOSITIONS, DEVICES, AND METHODS FOR THE TREATMENT OF OVERDOSE AND REWARD-BASED DISORDERS” (priority 2018, published 2024).

Data set [1] is described as follows: Intranasal naltrexone formulation experiments (solubility, crystallization, discoloration, osmolality). The data set is classed as physicochemical. On the procedure:
A series of experiments were performed to identify formulations of naltrexone which would make pharmaceutically appropriate intranasal products as disclosed herein.
A range of formulations were tested with the following observations. […] Several preparations were made at 30 mg/mL thereafter, which additionally contained fixed amounts of (dodecyl maltoside 0.25%) and NaCl (about 0.74%), and varying amounts of preservative (benzalkonium chloride, 0-0.02%) and stabilizing agent (EDTA, 0-0.3%). Crystallization behavior and discoloration were visually monitored. All of these formulations developed crystals when stored under refrigerated conditions. […] The 0.3% EDTA formulation appeared to resist yellowing for the longest period of time. Thereafter, a range of co-solvents were assessed for their potential to reduce crystallization of drug out of solution. Polyethylene glycol (PEG), propylene glycol, and benzyl alcohol were tested.

Data set [2] can be described thus: Safety assessments of Example 4 study (adverse events, nasal irritation, vital signs, ECG). It is filed as in vivo, human. On the procedure:
Sudy Goals. […] Secondary endpoints included adverse events (AEs), vital signs (heart rate, sitting blood pressure, and respiration rate), electrocardiogram (ECG), clinical laboratory changes and nasal irritation using the nasal irritation scale.
On dosing days, the order of assessments were ECG, vital signs, then PK blood collection when scheduled at the same nominal times. The target time of the PK blood collection was considered the most critical and if the collection was more than ±1 minute from the scheduled time for the first 60 minutes of collections or more than ±5 minutes for the scheduled time points thereafter, this was considered a protocol deviation. ECG and vital signs were collected within the 10 minute period before the nominal time of blood collections. At screening, admission, and discharge, ECG, and vital signs were checked once per day. […] Clinical laboratory measurements were repeated after the last PK blood draw prior to clinic discharge. AEs were assessed by spontaneous reports by subjects, by examination of the nasal mucosa, by measuring vital signs, ECG, and clinical laboratory parameters.
Safety Assessments. […] ECG and vital signs was performed within the 10 minute period before the nominal time for post-dose blood collections. AEs were recorded from the start of study drug administration until clinic discharge.

For data set [3] the following is noted: cited from earlier work.
The test system of data set [4] is rabbit eye. Particulars: concentrations of 25%; cited from earlier work.
[5] abbreviates: intranasal formulation with […] dodecyl maltoside.

Each structure is given as a SMILES string. Converted amounts (≈) assume the structure as drawn.

Turning to `O=C1CC[C@@]2(O)[C@H]3Cc4ccc(O)c5c4[C@@]2(CCN3CC2CC2)[C@H]1O5` [naltrexone, 17-(cyclopropylmethyl)-4,5α-epoxy-3,14-dihydroxymorphinan-6-one], the “appearance of 50 mg/mL preparation” value in data set [1] (room temperature, indicating incomplete dissolution) was “cloudy”. The solubility in data set [1] (thermodynamic from solid, ambient temperature, read-out: solubility limit in solution) was approximately 40 mg/mL (≈ 117 mM). The same molecule yielded a subjects with dizziness in data set [2] (5 subjects, regardless of severity or attribution) of 36%. For the same molecule, the “subjects with AEs of the Nervous System Disorders SOC” value in data set [2] (7 subjects) was determined as 50%. Further, the “subjects who experienced at least one AE” value in data set [2] (10 of 14 subjects, any dosing period, any relationship to drug) is on record as 71%. Moreover, in data set [2] (hypertension, syncope, out-of-range pre-dose vital signs), the “discontinuation from the study due to AEs” value is reported as “Three subjects were discontinued”. In addition, the “severe AEs” value in data set [2] (in vivo) is “No severe AEs were observed”.

With `CNS(=O)(=O)Cc1ccc2[nH]cc(CCN(C)C)c2c1` [sumatriptan], in data set [3] (intranasal formulation with […] dodecyl maltoside vs Imitrex nasal spray), the “increase of total exposure (AUC)” value is 32%. In addition, in data set [3] (setting [5]), the Tmax was 8 to 10 min and the “increase of maximum plasma concentration in comparison to Imitrex nasal spray” value is “almost four-fold”.

Take `CCCCCCCCCCCCO[C@@H]1O[C@H](CO)[C@@H](O[C@H]2O[C@H](CO)[C@@H](O)[C@H](O)[C@H]2O)[C@H](O)[C@H]1O` [Intravail®, 1-O-n-dodecyl-β-D-maltopyranoside]: the “irritation in the rabbit eye model” value in data set [4] is “non-irritating”.

What is called solubility is the dissolved amount per volume that the medium holds. What is called Tmax is the time from dosing to the highest level.
